Data: patent publication US20240190880A1 (THE REGENTS OF THE UNIVERSITY OF MICHIGAN, priority 2021, published 2024)

target: T1, ER (Homo sapiens, UniProt P03372); experiment: ER degradation activity, in-cell western blot analysis in T47D cells; type: cell-based; conditions: 16 hours, Table A does not say which cell line (T47D or MCF7), read-out: Potency (DC50)
T1 construct: host or cells: T47D and MCF7 human breast cancer cells
T1 sequence (P03372 1-595): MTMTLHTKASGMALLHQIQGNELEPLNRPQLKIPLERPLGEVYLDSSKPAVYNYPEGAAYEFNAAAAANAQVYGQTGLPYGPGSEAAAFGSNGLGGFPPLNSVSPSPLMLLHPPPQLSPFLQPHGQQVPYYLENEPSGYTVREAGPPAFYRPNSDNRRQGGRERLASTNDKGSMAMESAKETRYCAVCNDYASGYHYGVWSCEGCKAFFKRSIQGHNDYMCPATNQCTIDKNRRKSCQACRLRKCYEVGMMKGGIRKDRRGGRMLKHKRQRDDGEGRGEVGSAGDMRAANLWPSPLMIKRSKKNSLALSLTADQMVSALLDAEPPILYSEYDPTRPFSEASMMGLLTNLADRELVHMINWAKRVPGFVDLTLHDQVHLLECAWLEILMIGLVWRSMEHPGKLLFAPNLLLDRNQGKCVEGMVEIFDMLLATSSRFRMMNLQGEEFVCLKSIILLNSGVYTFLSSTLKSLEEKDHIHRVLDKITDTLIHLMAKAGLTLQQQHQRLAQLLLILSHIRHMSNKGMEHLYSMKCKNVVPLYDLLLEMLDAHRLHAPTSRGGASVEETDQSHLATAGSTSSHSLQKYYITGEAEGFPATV
In short: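 Human T47D cells (DMEM, 10% FBS) are dosed for 16 h with 0.5% DMSO final and probed with 680- and 800-dye secondary antibodies. Relative ER is calculated against vehicle and untreated wells.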

Row | DC50 [nM] | SMILES
1 | > 100 | O=C1CCC(N2C(=O)c3cc4c(cc3C2=O)CN(CC(=O)N2CCC(C(=O)N3CC(Oc5ccc([C@@H]6c7ccc(O)cc7CC[C@@H]6c6ccccc6)cc5)C3)CC2)C4)C(=O)N1 (stereo partly drawn) [E 376, 2-(2,6-dioxopiperidin-3-yl)-6-(2-(4-(3-(4-((1R,2S)-6-hydroxy-2-phenyl-1,2,3,4-tetrahydronaphthalen-1-yl)phenoxy)azetidine-1-carbonyl)piperidin-1-yl)-2-oxoethyl)-6,7-dihydropyrrolo[3,4-f]isoindole-1,3(2H,5H)-dione]
2 | 10 to 100 | O=C1CCC(N2C(=O)c3cc4c(cc3C2=O)CN(CC(=O)N2CCC3(CC2)CCN(c2ccc([C@H]5c6ccc(O)cc6CC[C@H]5c5ccc(F)cc5)cc2)CC3)C4)C(=O)N1 (stereo partly drawn) [E 213, 2-(2,6-dioxopiperidin-3-yl)-6-(2-(9-(4-((1S,2R)-2-(4-fluorophenyl)-6-hydroxy-1,2,3,4-tetrahydronaphthalen-1-yl)phenyl)-3,9-diazaspiro[5.5]undecan-3-yl)-2-oxoethyl)-6,7-dihydropyrrolo[3,4-f]isoindole-1,3(2H,5H)-dione]
3 | 10 to 100 | O=C1CCC(N2C(=O)c3cc4c(cc3C2=O)CN(CC(=O)N2CCC3(CC2)CN(c2ccc([C@@H]5c6ccc(O)cc6CC[C@@H]5c5ccccc5)cc2)C3)C4)C(=O)N1 (mixture of isomers) [E 10, Rac-2-(2,6-dioxopiperidin-3-yl)-6-(2-(2-(4-((1R,2S)-6-hydroxy-2-phenyl-1,2,3,4-tetrahydronaphthalen-1-yl)phenyl)-2,7-diazaspiro[3.5]nonan-7-yl)-2-oxoethyl)-6,7-dihydropyrrolo[3,4-f]isoindole-1,3(2H,5H)-dione]
4 | > 100 | O=C1CCC(N2C(=O)c3cc4c(cc3C2=O)CN(CC(=O)N2CCC(Oc3ccc([C@@H]5c6ccc(O)cc6CC[C@@H]5c5ccccc5)cc3)CC2)C4)C(=O)N1 (stereo partly drawn) [E 219, 2-(2,6-dioxopiperidin-3-yl)-6-(2-(4-(4-((1R,2S)-6-hydroxy-2-phenyl-1,2,3,4-tetrahydronaphthalen-1-yl)phenoxy)piperidin-1-yl)-2-oxoethyl)-6,7-dihydropyrrolo[3,4-f]isoindole-1,3(2H,5H)-dione]

More lines, now with the values behind:

Row | SMILES | DC50 [nM]
5 | C[C@@H]1Cc2c([nH]c3ccccc23)[C@@H](c2ccc(N3CCC4(CCN(CC(=O)N5Cc6cc7c(cc6C5)C(=O)N(C5CCC(=O)NC5=O)C7=O)CC4)CC3)cn2)N1CC(F)F (stereo partly drawn) [E 292, 6-(2-(9-(6-((1S,3R)-2-(2,2-difluoroethyl)-3-methyl-2,3,4,9-tetrahydro-1H-pyrido[3,4-b]indol-1-yl)pyridin-3-yl)-3,9-diazaspiro[5.5]undecan-3-yl)acetyl)-2-(2,6-dioxopiperidin-3-yl)-6,7-dihydropyrrolo[3,4-f]isoindole-1,3(2H,5H)-dione] | > 100
6 | C[C@@H]1Cc2c([nH]c3ccccc23)[C@@H](c2c(F)cc(C3CCC(C(=O)N4CCC(CN5Cc6cc7c(cc6C5)C(=O)N(C5CCC(=O)NC5=O)C7=O)CC4)CC3)cc2F)N1CC(F)F (stereo partly drawn) [E248, 6-((1-(4-(4-((1R,3R)-2-(2,2-difluoroethyl)-3-methyl-2,3,4,9-tetrahydro-1H-pyrido[3,4-b]indol-1-yl)-3,5-difluorophenyl)cyclohexane-1-carbonyl)piperidin-4-yl)methyl)-2-(2,6-dioxopiperidin-3-yl)-6,7-dihydropyrrolo[3,4-f]isoindole-1,3(2H,5H)-dione] | > 100
7 | O=C1CCC(N2Cc3cc4c(cc3C2=O)CN(C2CCN(CC3CN(c5ccc([C@H]6c7ccc(O)cc7CC[C@H]6c6ccc(F)cc6)cc5)C3)CC2)C4)C(=O)N1 (stereo partly drawn) [E 279, 3-(6-(1-((1-(4-((1S,2R)-2-(4-fluorophenyl)-6-hydroxy-1,2,3,4-tetrahydronaphthalen-1-yl)phenyl)azetidin-3-yl)methyl)piperidin-4-yl)-1-oxo-3,5,6,7-tetrahydropyrrolo[3,4-f]isoindol-2(1H)-yl)piperidine-2,6-dione] | 10 to 100
8 | C[C@@H]1Cc2c([nH]c3ccccc23)[C@@H](c2c(F)cc(C3CCC(C(=O)N4CC(CN5Cc6cc7c(cc6C5)C(=O)N(C5CCC(=O)NC5=O)C7=O)C4)CC3)cc2F)N1CC(F)F (stereo partly drawn) [E250, 6-((1-(4-(4-((1R,3R)-2-(2,2-difluoroethyl)-3-methyl-2,3,4,9-tetrahydro-1H-pyrido[3,4-b]indol-1-yl)-3,5-difluorophenyl)cyclohexane-1-carbonyl)azetidin-3-yl)methyl)-2-(2,6-dioxopiperidin-3-yl)-6,7-dihydropyrrolo[3,4-f]isoindole-1,3(2H,5H)-dione] | < 10
9 | C[C@@H]1Cc2cc(O)ccc2[C@@H](c2c(F)cc(N3CCC4(CN(C(=O)CN5Cc6cc7c(cc6C5)C(=O)N(C5CCC(=O)NC5=O)C7)C4)C3)cc2F)N1CC(F)F (stereo partly drawn) [E 37, 3-(6-(2-(6-(4-((1S,3R)-2-(2,2-difluoroethyl)-6-hydroxy-3-methyl-1,2,3,4-tetrahydroisoquinolin-1-yl)-3,5-difluorophenyl)-2,6-diazaspiro[3.4]octan-2-yl)-2-oxoethyl)-1-oxo-3,5,6,7-tetrahydropyrrolo[3,4-f]isoindol-2(1H)-yl)piperidine-2,6-dione] | < 10
10 | C[C@@H]1Cc2c([nH]c3ccccc23)[C@@H](c2cnc(N3CCC(C(=O)N4CCC(N5Cc6cc7c(cc6C5)C(=O)N(C5CCC(=O)NC5=O)C7=O)CC4)CC3)nc2)N1CC(F)F (stereo partly drawn) [E 260, 6-(1-(1-(5-((1R,3R)-2-(2,2-difluoroethyl)-3-methyl-2,3,4,9-tetrahydro-1H-pyrido[3,4-b]indol-1-yl)pyrimidin-2-yl)piperidine-4-carbonyl)piperidin-4-yl)-2-(2,6-dioxopiperidin-3-yl)-6,7-dihydropyrrolo[3,4-f]isoindole-1,3(2H,5H)-dione] | < 10
11 | C[C@@H]1Cc2c([nH]c3ccccc23)[C@@H](c2c(F)cc(N3CC4(CCN(CC(=O)N5Cc6cc7c(cc6C5)C(=O)N(C5CCC(=O)NC5=O)C7=O)CC4)C3)cc2F)N1CC(F)F (stereo partly drawn) [E 97, 6-(2-(2-(4-((1R,3R)-2-(2,2-difluoroethyl)-3-methyl-2,3,4,9-tetrahydro-1H-pyrido[3,4-b]indol-1-yl)-3,5-difluorophenyl)-2,7-diazaspiro[3.5]nonan-7-yl)acetyl)-2-(2,6-dioxopiperidin-3-yl)-6,7-dihydropyrrolo[3,4-f]isoindole-1,3(2H,5H)-dione] | 10 to 100

same assay, conditions: compounds 16 hours, Table A does not say whether T47D or MCF7, read-out: Potency (DC50)

Row | DC50 [nM] | SMILES
12 | > 100 | C[C@@H]1Cc2cc(O)ccc2[C@@H](c2c(F)cc(N3CCC(CN4CCC(N5Cc6cc7c(cc6C5)C(=O)N(C5CCC(=O)NC5=O)C7=O)CC4)CC3)cc2F)N1CC(F)F (stereo partly drawn) [E 466, 6-(1-((1-(4-((1S,3R)-2-(2,2-difluoroethyl)-6-hydroxy-3-methyl-1,2,3,4-tetrahydroisoquinolin-1-yl)-3,5-difluorophenyl)piperidin-4-yl)methyl)piperidin-4-yl)-2-(2,6-dioxopiperidin-3-yl)-6,7-dihydropyrrolo[3,4-f]isoindole-1,3(2H,5H)-dione]
13 | < 10 | C[C@@H]1Cc2cc(O)ccc2[C@@H](c2c(F)cc(N3CCC(C(=O)N4CCC(N5Cc6cc7c(cc6C5)C(=O)N(C5CCC(=O)NC5=O)C7=O)CC4)CC3)cc2F)N1CC(F)F (stereo partly drawn) [E 463, 6-(1-(1-(4-((1S,3R)-2-(2,2-difluoroethyl)-6-hydroxy-3-methyl-1,2,3,4-tetrahydroisoquinolin-1-yl)-3,5-difluorophenyl)piperidine-4-carbonyl)piperidin-4-yl)-2-(2,6-dioxopiperidin-3-yl)-6,7-dihydropyrrolo[3,4-f]isoindole-1,3(2H,5H)-dione]
14 | > 100 | O=C1CCC(N2Cc3cc4c(cc3C2=O)C(=O)N(C2CCN(CC3CCN(c5ccc([C@@H]6c7ccc(O)cc7CC[C@@H]6c6ccccc6)cc5)CC3)CC2)C4)C(=O)N1 (stereo partly drawn) [E 507, 2-(2,6-dioxopiperidin-3-yl)-6-(1-((1-(4-((1R,2S)-6-hydroxy-2-phenyl-1,2,3,4-tetrahydronaphthalen-1-yl)phenyl)piperidin-4-yl)methyl)piperidin-4-yl)-2,3,5,6-tetrahydropyrrolo[3,4-f]isoindole-1,7-dione]
15 | > 100 | O=C1CCC(N2Cc3cc4c(cc3C2=O)C(=O)N(CC2CN(CC3CCN(c5ccc([C@@H]6c7ccc(O)cc7CC[C@@H]6c6ccccc6)cc5)CC3)C2)C4)C(=O)N1 (stereo partly drawn) [E 508, 2-(2,6-dioxopiperidin-3-yl)-6-((1-((1-(4-((1R,2S)-6-hydroxy-2-phenyl-1,2,3,4-tetrahydronaphthalen-1-yl)phenyl)piperidin-4-yl)methyl)azetidin-3-yl)methyl)-2,3,5,6-tetrahydropyrrolo[3,4-f]isoindole-1,7-dione]
16 | > 100 | CC1(C(=O)N2CCC(N3Cc4cc5c(cc4C3)C(=O)N(C3CCC(=O)NC3=O)C5=O)CC2)CCN(c2ccc([C@@H]3c4ccc(O)cc4CC[C@@H]3c3ccccc3)cc2)CC1 (mixture of isomers) [E 488, rac-2-(2,6-dioxopiperidin-3-yl)-6-(1-(1-(4-((1R,2S)-6-hydroxy-2-phenyl-1,2,3,4-tetrahydronaphthalen-1-yl)phenyl)-4-methylpiperidine-4-carbonyl)piperidin-4-yl)-6,7-dihydropyrrolo[3,4-f]isoindole-1,3(2H,5H)-dione]
